Holding throughout (format): cell-based, human
What all share (conditions): pre-incubated with inhibitors 16 hours, mean of at least 2 experiments

One assay has as its system HDAC (HCT116 cells). Put plainly: whole cell deacetylase (HDAC) assay in HCT116 cells with Boc-Lys(Ac)-AMC. The protocol: (§1) Freshly trypsinized cells were dispensed into 96-well black Costar E1A/RIA plates (Corning Inc., Corning, N.Y.). Small molecule substrate Boc-Lys(Ac)-AMC (Bachem Biosciences Inc., King of Prussia, Philadelphia) was added to cell suspension with the final concentration of 300 uM. Cells were placed in 37° C. incubator with 5% CO2 for 90 minutes. Reaction was stopped by adding a freshly prepared Flouor-de-Lys™ deleveloper (Biomol, Plymouth Meeting, Philadelphia) with 1 uM TSA (Biomol) in assay buffer (25 mM Tris, HCl pH8.0, 137 mM NaCl, 2.7 mM KCl, 1 mM MgCl2) plus 1% NP-40. With the presence of 1% NP-40, both excellular and intracellular HDAC activity was measured in cultured cells altogether.
(§2) HDAC enzyme assay in intact cells was carried out as described in Example 3.
Cultured HCT116 cells were counted and distributed to each well of the 96-well plate. […] After addition of Sirtuin substrate (Fluor-de-Lys-SirT1, 500 uM) or HDAC substrate Boc-Lys(Ac)-AMC (300 uM), the cells are further incubated for an additional 2 hours. Reaction was stopped and read as described in Examples 3 and 6.

For a further assay, the system named is HDAC (A549 cells). In words: whole cell deacetylase (HDAC) assay in A549 cells with Boc-Lys(Ac)-AMC. As to the method: as §1, §2
Another assay concerns HDAC (Jurkat T cells). Put plainly: whole cell deacetylase (HDAC) assay in Jurkat T cells with Boc-Lys(Ac)-AMC. The protocol:
as §1, §2

A further assay has as its system HDAC (293T cells). Put plainly: whole cell deacetylase (HDAC) assay in 293T cells with Boc-Lys(Ac)-AMC. As to the method: as §1, §2
The next assay deals with HDAC (Panc-1 cells). In words: whole cell deacetylase (HDAC) assay in Panc-1 cells with Boc-Lys(Ac)-AMC. The protocol:
as §1, §2

Another assay has as its system HDAC (Du145 cells). In words: whole cell deacetylase (HDAC) assay in Du145 cells with Boc-Lys(Ac)-AMC. As to the method:
as §1, §2

Consider one molecule from patent US20060063210A1, “Histone deacetylase whole cell enzyme assay” (Methylgene, Inc., priority 2004, published 2006).

As to `Nc1ccccc1NC(=O)c1ccc(CNC(=O)OCc2cccnc2)cc1` [MS-275], the IC50 – broadly, the point on the concentration scale where inhibition reaches its midpoint – with HDAC (HCT116 cells) stood at 3000 nM; in the assay with HDAC (A549 cells) it was 400 nM; with HDAC (Jurkat T cells), 300 nM; in the assay on HDAC (293T cells), 2000 nM; with HDAC (Panc-1 cells), 500 nM; with HDAC (Du145 cells), 300 nM.
